Experimental data: patent publication US7285569B2, “Tricycles, their manufacture and use as pharmaceutical agents” (Hoff Hoffmann-La Roche Inc., priority 2004, dated 2007)
pIC50: −log10 of the molar value.

Experiments:
HCT 116 cells = assay: CellTiter-Glo assay in HCT 116 cells (antiproliferative activity); format: cell-based; settings: HCT 116 human colon carcinoma cells, 5 days (120 h) incubation, CellTiter-Glo luminescence
From the text: Antiproliferative Activity
CellTiter-Glo™ Assay in HCT 116 Cells
The CellTiter-Glo™ Luminescent Cell Viability Assay (Promega) is a homogeneous method of determining the number of viable cells in culture based on quantitation of the ATP present, which signals the presence of metabolically active cells.
HCT 116 cells (human colon carcinoma, ATCC-No. CCI-247) were cultivated in RPMI 1640 medium with GlutaMAX™ I (Invitrogen, Cat-No. 61870-010), 2.5% Fetal Calf Serum (FCS, Sigma Cat-No. F4135 (FBS)); 100 Units/ml penicillin/100 μg/ml streptomycin (=Pen/Strep from Invitrogen Cat. No. 15140). For the assay the cells were seeded in 384 well plates, 1000 cells per well, in the same medium. The next day the test compounds were added in various concentrations ranging from 30 μM to 0.0015 μM (10 concentrations, 1:3 diluted). After 5 days the CellTiter-Glo™ assay was done according to the instructions of the manufacturer (CellTiter-Glo™ Luminescent Cell Viability Assay, from Promega). In brief: the cell-plate was equilibrated to room temperature for approximately 30 minutes and than the CellTiter-Glo™ reagent was added. The contents were carefully mixed for 15 minutes to induce cell lysis. After 45 minutes the luminescent signal was measured in Victor 2, (scanning multiwell spectrophotometer, Wallac).
Medium: RPMI 1640 with GlutaMAX™ I (Invitrogen, Cat-Nr. 61870), 5% FCS (Sigma Cat.-No. F4135), Pen/Strep (Invitrogen, Cat No. 15140).
HCT116 (ATCC-No. CCI-247): 1000 cells in 60 μl per well of 384 well plate (Greiner 781098, μClear-plate white)
After seeding incubate plates 24 h at 37° C., 5% CO2
2nd. Day: Induction (Treatment with Compounds, 10 Concentrations):
In order to achieve a final concentration of 30 μM as highest concentration 3.5 μl of 10 mM compound stock solution were added directly to 163 μl media. Then step e) of the dilution procedure described below, was followed.
In order to achieve the second highest to the lowest concentrations, a serial dilution with dilution steps of 1:3 was followed according to the procedure (a-e) as described here below: • for the second highest concentration add 10 μl of 10 mM stock solution of compound to 20 μl dimethylsulfoxide (DMSO) • dilute 8×1:3 (always 10 μl to 20 μl DMSO) in this DMSO dilution row (results in 9 wells with concentrations from 3333.3 μM to 0.51 μM) • dilute each concentration 1:47.6 (3.5 μl compound dilution to 163 μl media) • add 10 μl of every concentration to 60 μl media in the cell plate resulting in final concentration of DMSO: 0.3% in every well and resulting in 10 final concentration of compounds ranging from 30 μM to 0.0015 μM. • Each compound is tested in triplicate. • Incubate 120 h (5 days) at 37° C., 5% CO2 Analysis:
Add 30 μl CellTiter-Glo™ Reagent (prepared from CellTiter-Glo™ Buffer and CellTiter-Glo™ Substrate (lyophilized) purchased from Promega) per well, • shake 15 minutes at room temperature • incubate further 45 minutes at room temperature without shaking Measurement:
Victor 2 scanning multiwell spectrophotometer (Wallac), Luminescence mode (0.5 sec/read, 477 nm)
Determine IC50 using a non-linear curve fit (XLfit software (ID Business Solution Ltd., Guilford, Surrey, UK))

Aurora A = biological target: T1, Aurora A (Homo sapiens, UniProt O14965); assay: IC50 determination for inhibitors of Aurora A (96 MTP-ELISA); format: biochemical; settings: His4-tagged full-length Aurora A 250 ng/ml, PKB-GSK2 200 nM, ATP 4 μM, 90 min at room temperature; read-out: IC50 Aurora A kinase inhibition
T1 construct: C-terminally Histidine4 (His4)-tagged Aurora A full-length protein
T1 sequence (O14965 1-403): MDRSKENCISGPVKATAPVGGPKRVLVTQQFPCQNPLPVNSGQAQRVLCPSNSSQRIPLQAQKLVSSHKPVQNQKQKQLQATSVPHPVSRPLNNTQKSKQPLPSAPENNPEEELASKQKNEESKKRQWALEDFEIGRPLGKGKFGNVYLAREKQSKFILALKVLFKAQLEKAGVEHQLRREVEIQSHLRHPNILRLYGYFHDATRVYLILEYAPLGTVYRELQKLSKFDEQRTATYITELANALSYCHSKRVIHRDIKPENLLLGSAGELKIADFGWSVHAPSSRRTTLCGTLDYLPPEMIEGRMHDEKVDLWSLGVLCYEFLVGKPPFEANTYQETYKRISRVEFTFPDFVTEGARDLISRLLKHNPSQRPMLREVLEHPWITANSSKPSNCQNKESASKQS
From the text: IC50 Determination for Inhibitors of Aurora A
Aurora A is a serine threonine kinase involved in spindle assembly and chromosome segregation.
The assay is a typically ELISA-type assay where biotinylated substrate (PKB-GSK2) is phosphorylated. Phosphorylation is detected by peroxidase (POD) labelled polyclonal antibody (PAK<M-Ig>S-IgG-POD) and phosphopeptide monoclonal antibody (Mab) (MAK<P-GSK>M-27E5-IgG). The assay is validated for IC50-determination.
Aurora A-His-4 C-terminally Histidine4 (His4)-tagged Aurora A full-length protein, stock solution 0.7 mg/ml, final conc.: 250 ng/ml
PKB-GSK2 biotinylated peptide derived from human GSK3-alpha sequence (Biotin-SGRARTSSFAEPGG-CONH2), stock solution 600 μM, final conc.: 200 nM
ATP Adenosine-5′-triphosphate 1 mM, diluted in kinase buffer, (Roche Diagnostics GmbH, Cat. No.: 127531-001,), final conc.: 4 μM
Kinase buffer 50 mM TRIS, 10 mM MgCl2, 1 mM DTT, 0.1% Tween 20, pH 7.8
This assay is performed in 96-well format for IC50 determination with 5 samples (each with 8 concentrations by twofold testing), 100 μl incubation volume and the following plate layout:
Step/Action 1. Sample preparation: add 24 μl per well samples (descending sequence) diluted in kinase buffer to assay plate (final conc. for DMSO 1%). 2. Add directly 16 μl Aurora-A-his-4 diluted in kinase buffer to assay plate. 3. Add directly 40 μl per well PKB-GSK2/ATP mixture to assay plate, (final conc.: Aurora A=250 ng/ml, GSK2=200 nM, ATP=4 μM). Negative control: without ATP. 4. Incubate assay plate for exactly 90 min at room temperature. 5. Stop reaction by adding 20 μl EDTA in all wells. 6. Wash assay plate 3× with 200 μl washing buffer per well. 7. Add 100 μl MAK<P-GSK>M27E5-IgG (1:10000) and PAK<M-Ig>S-IgG-POD (1:6000) dissolved in 3% BSA/PBS-T to assay plate per well. 8. Incubate assay plate for 60 min at room temperature. 9. Wash assay plate 3× with 200 μl washing buffer per well 10. Add 100 μl ABTS solution to assay plate per well, incubate for approx. 4 min at RT on MTP shaker. 11. Measure absorption at 405/492 nm. 12. Calculate % inhibition as: (1−(Esample−ENC)/(EPC−ENC))×100 13. Calculate IC50 using a non-linear curve fit (XLfit software (ID Business Solution Ltd., Guilford, Surrey, UK))

SMILES: CC(=O)N1CC(C)(C)c2cc3nc(-c4cc(C)n[nH]4)[nH]c3cc21 [Example 2, 1-[7,7-Dimethyl-2-(5-methyl-2H-pyrazol-3-yl)-6,7-dihydro-3H-imidazo[4,5-f]indol-5-yl]-ethanone]
- pIC50 (HCT 116 cells): 5.33
- pIC50 (Aurora A): 6.30 to 8.00

SMILES: Cc1cc(-c2nc3cc4c(cc3[nH]2)C(C)(C)CC(=O)N4)n[nH]1 [Example 3, 8,8-Dimethyl-2-(5-methyl-1H-pyrazol-3-yl)-1,5,7,8-tetrahydro-imidazo[4,5-g]quinolin-6-one]
- pIC50 (HCT 116 cells): 4.00 to 5.00
- pIC50 (Aurora A): 6.67

SMILES: CC(C)Cc1cc(-c2nc3cc4c(cc3[nH]2)C(C)(C)CC(=O)N4)[nH]n1 [Example 4, 2-(5-Isobutyl-2H-pyrazol-3-yl)-8,8-dimethyl-1,5,7,8-tetrahydro-imidazo[4,5-g]quinolin-6-one]
- pIC50 (HCT 116 cells): 5.12
- pIC50 (Aurora A): 5.82 to 6.30

SMILES: Cc1cc(-c2nc3cc4c(cc3[nH]2)NC(=O)C4(C)C)n[nH]1 [Example 5, 7,7-Dimethyl-2-(5-methyl-2H-pyrazol-3-yl)-5,7-dihydro-3H-imidazo[4,5-f]indol-6-one]
- pIC50 (HCT 116 cells): 5.00 to 7.00
- pIC50 (Aurora A): 6.30 to 8.00

SMILES: CC(C)Cc1cc(-c2nc3cc4c(cc3[nH]2)C(C)(C)C(=O)N4)[nH]n1 [Example 6, 2-(5-isobutyl-2H-pyrazol-3-yl)-7,7-dimethyl-5,7-dihydro-1H-imidazo[4,5-f]indol-6-one]
- pIC50 (HCT 116 cells): 5.00 to 7.00
- pIC50 (Aurora A): 5.82 to 6.30

SMILES: Cc1cc(-c2nc3cc4c(cc3[nH]2)NC(=O)C42CCCC2)[nH]n1 [Example 7, 2-(5-Methyl-2H-pyrazol-3-yl)-spiro-5,7-dihydro[cyclopentane-1′,7-imidazo[4,5-f]indol]-6(3H)-one]
- pIC50 (HCT 116 cells): 5.00 to 7.00
- pIC50 (Aurora A): 6.30 to 8.00

SMILES: Cc1cc(-c2nc3cc4[nH]c(=O)[nH]c4cc3[nH]2)n[nH]1 [Example 9, 6-(5-Methyl-1H-pyrazol-3-yl)-3,5-dihydro-1H-benzo[1,2-d;4,5-d′]diimidazol-2-one]
- pIC50 (HCT 116 cells): 4.00 to 5.00
- pIC50 (Aurora A): 5.82 to 6.30

SMILES: Cc1cc(-c2nc3cc4[nH]c(=O)n(C(C)C)c4cc3[nH]2)n[nH]1 [Example 11, 3-Isopropyl-6-(5-methyl-1H-pyrazol-3-yl)-3,5-dihydro-1H-benzo[1,2-d;4,5-d′]diimidazol-2-one]
- pIC50 (HCT 116 cells): 4.00 to 5.00
- pIC50 (Aurora A): 6.80

SMILES: Cc1[nH]nc(-c2nc3cc4c(cc3[nH]2)C(C)(C)C(=O)N4)c1C [Example 17, 2-(4,5-Dimethyl-1H-pyrazol-3-yl)-7,7-dimethyl-5,7-dihydro-1H-imidazo[4,5-f]indol-6-one]
- pIC50 (HCT 116 cells): 5.00 to 7.00
- pIC50 (Aurora A): 6.30 to 8.00

SMILES: CC(C)CCc1cc(-c2nc3cc4c(cc3[nH]2)C(C)(C)C(=O)N4)n[nH]1 [Example 18, 7,7-Dimethyl-2-[5-(3-methyl-butyl)-1H-pyrazol-3-yl]-5,7-dihydro-1H-imidazo[4,5-f]indol-6-one]
- pIC50 (HCT 116 cells): 5.00 to 7.00
- pIC50 (Aurora A): 6.30 to 8.00

SMILES: CCCc1cc(-c2nc3cc4c(cc3[nH]2)C(C)(C)CC(=O)N4)[nH]n1 [Example 23, 8,8-Dimethyl-2-(5-propyl-2H-pyrazol-3-yl)-1,5,7,8-tetrahydro-imidazo[4,5-g]quinolin-6-one]
- pIC50 (HCT 116 cells): 5.00 to 7.00
- pIC50 (Aurora A): 6.30 to 8.00

SMILES: CC1(C)CC(=O)Nc2cc3nc(-c4cc[nH]n4)[nH]c3cc21 [Example 24, 8,8-Dimethyl-2-(1H-pyrazol-3-yl)-1,5,7,8-tetrahydro-imidazo[4,5-g]quinolin-6-one]
- pIC50 (HCT 116 cells): 5.00 to 7.00
- pIC50 (Aurora A): 5.82 to 6.30

SMILES: O=C1Nc2cc3[nH]c(-c4ccn[nH]4)nc3cc2C12CCCC2 [Example 27, 2-(2H-pyrazol-3-yl)-spiro-5,7-dihydro[cyclopentane-1′,7-imidazo[4,5-f]indol]-6(3H)-one]
- pIC50 (HCT 116 cells): 5.00 to 7.00
- pIC50 (Aurora A): 6.30 to 8.00

SMILES: CCCc1cc(-c2nc3cc4c(cc3[nH]2)NC(=O)C42CCCC2)[nH]n1 [Example 29, 2-(5-Propyl-2H-pyrazol-3-yl)-spiro-5,7-dihydro[cyclopentane-1′,7-imidazo[4,5-f]indol]-6(3H)-one]
- pIC50 (Aurora A): 5.82 to 6.30
